Converted amounts (≈) assume the structure as drawn. The source made the active and inactive calls. The rule behind the calls is not given here. Bridge positions count the residues as written; N and C are the ends. Square brackets hold non-standard residues; d marks the D form. Peptide text beside a SMILES is read from it. * marks the point of attachment. Dip = N[C@H](C(=O)O)C(c1ccccc1)c1ccccc1; 2Nal = N[C@@H](Cc1ccc2ccccc2c1)C(=O)O; X1 = CC[C@H](C)CCCCC(=O)*; Dab = NCC[C@H](N)C(=O)O
What was measured:
Staphylococcus aureus [1] = assay: Antibacterial activity against methicillin resistant Staphylococcus aureus ATCC BAA-1556 incubated for 24 hrs by microtiter plate method; assay type: functional; conditions: Staphylococcus aureus, ATCC BAA-1556, 24 h, read-out: MIC
Staphylococcus aureus [2] = assay: Antibacterial activity against Staphylococcus aureus ATCC 29213 incubated for 24 hrs by microtiter plate method; assay type: functional; conditions: Staphylococcus aureus, ATCC 29213, read-out: MIC
Escherichia coli [3] = assay: Antibacterial activity against Escherichia coli ATCC 25922 incubated for 24 hrs by microtiter plate method; assay type: functional; conditions: Escherichia coli
[4] = Hemolytic activity in human RBC assessed as hemolysis incubated for 2 hrs by spectrophotometer analysis; assay type: toxicity, cell-based, Erythrocyte; conditions: human red blood cells (erythrocytes)
Pseudomonas aeruginosa [5] = assay: Antibacterial activity against Pseudomonas aeruginosa ATCC 27883 incubated for 24 hrs by microtiter plate method; assay type: functional; conditions: Pseudomonas aeruginosa
Escherichia coli [6] = assay: Antibacterial activity against Escherichia coli ATCC 25922 assessed as reduction in microbial growth after 24 hrs in presence of 6 mM of NH4Cl at by microtiter plate method; assay type: functional
Acinetobacter baumannii = assay: Antibacterial activity against ciprofloxacin resistance Acinetobacter baumannii ATCC BAA1605 incubated for 24 hrs by microtiter plate method; assay type: functional
Klebsiella pneumoniae [7] = assay: Antibacterial activity against Klebsiella pneumoniae ATCC 13883 […] incubated for 24 hrs by microtiter plate method; assay type: functional
Escherichia coli [8] = assay: Antibacterial activity against Escherichia coli ATCC 25922 after 24 hrs in presence of fetal bovine serum by microtiter plate method; assay type: functional
Escherichia coli [9] = assay: Bactericidal activity against Escherichia coli ATCC BAA-2452 assessed as reduction of bacterial growth at MIC by counting formed colonies; assay type: functional, organism-based; conditions: time <= 4.0 hrs, TDE = time-dependent effect
Escherichia coli [10] = assay: Antibacterial activity against Escherichia coli ATCC 25922 after 24 hrs in presence of 4.5 mM of KCl at by microtiter plate method; assay type: functional
Pseudomonas aeruginosa [11] = assay: Antibacterial activity against Pseudomonas aeruginosa ATCC 10145 incubated for 24 hrs by microtiter plate method; assay type: functional
Escherichia coli [12] = assay: Antibacterial activity against Escherichia coli ATCC 25922 after 24 hrs in presence of 1 mM of MgCl2 at by microtiter plate method; assay type: functional
Escherichia coli [13] = assay: Antibacterial activity against Escherichia coli NDM-1-resistant ATCC BAA-2452 incubated for 24 hrs by microtiter plate method; assay type: functional
Escherichia coli [14] = assay: Antibacterial activity against Escherichia coli ATCC 25922 after 24 hrs in presence of 150 mM NaCl by microtiter plate method; assay type: functional
Escherichia coli [15] = assay: Antibacterial activity against Escherichia coli ATCC 25922 after 24 hrs in presence of 2 mM CaCl2 at by microtiter plate method; assay type: functional
Escherichia coli [16] = assay: Bactericidal activity against Escherichia coli ATCC BAA-2452 assessed as reduction of bacterial growth at 4 times MIC by counting formed colonies; assay type: functional, organism-based; conditions: time <= 4.0 hrs, TDE = time-dependent effect
Staphylococcus aureus [17] = assay: Bactericidal activity against methicillin resistant Staphylococcus aureus ATCC BAA-1556 assessed as reduction of bacterial growth at 4 times MIC by counting formed colonies; assay type: functional, organism-based; conditions: time <= 4.0 hrs, TDE = time-dependent effect
Staphylococcus aureus [18] = assay: Bactericidal activity against methicillin resistant Staphylococcus aureus ATCC BAA-1556 assessed as time required for complete reduction of bacterial growth at 4 times MIC by counting formed colonies; assay type: functional
Staphylococcus aureus [19] = assay: Bactericidal activity against methicillin resistant Staphylococcus aureus ATCC BAA-1556 assessed as reduction of bacterial growth at MIC by counting formed colonies; assay type: functional, organism-based; conditions: time <= 4.0 hrs, TDE = time-dependent effect
Staphylococcus aureus [20] = assay: Bactericidal activity against methicillin resistant Staphylococcus aureus ATCC BAA-1556 assessed as time required for complete reduction of bacterial growth at MIC by counting formed colonies; assay type: functional
Klebsiella pneumoniae [21] = assay: Antibacterial activity against carbapenem-resistant Klebsiella pneumoniae ATCC BAA-2470 incubated for 24 hrs by microtiter plate method; assay type: functional
Escherichia coli [22] = assay: Antibacterial activity against Escherichia coli ATCC 25922 incubated for 24 hrs; assay type: functional
Pseudomonas aeruginosa [23] = assay: Antibacterial activity against imipenem resistant Pseudomonas aeruginosa ATCC BAA-1744 incubated for 24 hrs by microtiter plate method; assay type: functional
[24] = ATCC 25922, 24 h, read-out: MIC
[25] = ATCC 27883, 24 h, read-out: MIC

`N=C(N)NCCC[C@H](NC(=O)[C@H](CCCNC(=N)N)NC(=O)[C@H](CCCNC(=N)N)NC(=O)[C@@H](N)CCCNC(=N)N)C(=O)N[C@@H](Cc1ccc2ccccc2c1)C(=O)N[C@@H](Cc1ccc2ccccc2c1)C(=O)O` (H-RRRR[2Nal][2Nal]-OH) gave an MIC (Staphylococcus aureus [1]) of 6.2 µg/mL (≈ 5.98 µM), an MIC (Staphylococcus aureus [2]) of 6.2 µg/mL (≈ 5.98 µM) and an MIC (Escherichia coli [3]; [24]) of 50 µg/mL (≈ 48.2 µM). It also gave an HC50 at 2 h [4] of 180 µg/mL and an MIC (Pseudomonas aeruginosa [5]; [25]) of over 100 µg/mL.
In the case of `N=C(N)NCCC[C@@H]1NC(=O)[C@H](CCCNC(=N)N)NC(=O)[C@H](Cc2ccc3ccccc3c2)NC(=O)[C@H](Cc2ccc3ccccc3c2)NC(=O)[C@H](Cc2ccc3ccccc3c2)NC(=O)[C@H](CCCNC(=N)N)NC1=O` (cyclo([2Nal][2Nal][2Nal]RRR)), the MIC (Staphylococcus aureus [1]) is reported as 6.2 µg/mL (≈ 5.85 µM), the MIC (Staphylococcus aureus [2]) is reported as 3.1 µg/mL (≈ 2.92 µM) and the MIC (Escherichia coli [3]; [24]) is reported as 25 µg/mL (≈ 23.6 µM). For the same molecule, the HC50 at 2 h [4] was 50 µg/mL and the MIC (Pseudomonas aeruginosa [5]; [25]) was 50 µg/mL (≈ 47.2 µM).
In the case of `NCCCC[C@@H]1NC(=O)[C@H](CCCCN)NC(=O)[C@H](CCCCN)NC(=O)[C@H](C(c2ccccc2)c2ccccc2)NC(=O)[C@H](C(c2ccccc2)c2ccccc2)NC(=O)[C@H](C(c2ccccc2)c2ccccc2)NC(=O)[C@H](CCCCN)NC1=O` (cyclo([Dip][Dip][Dip]KKKK)), the MIC (Staphylococcus aureus [1]) is reported as 12.5 µg/mL (≈ 10.6 µM), the MIC (Staphylococcus aureus [2]) is reported as 12.5 µg/mL (≈ 10.6 µM) and the MIC (Escherichia coli [3]; [24]) is reported as over 100 µg/mL. For the same molecule, the HC50 at 2 h [4] was 165 µg/mL and the MIC (Pseudomonas aeruginosa [5]; [25]) was over 100 µg/mL.
Work on `N=C(N)NCCC[C@H](NC(=O)[C@H](CCCNC(=N)N)NC(=O)[C@@H](NC(=O)[C@@H](NC(=O)[C@H](CCCNC(=N)N)NC(=O)[C@@H](N)CCCNC(=N)N)C(c1ccccc1)c1ccccc1)C(c1ccccc1)c1ccccc1)C(=O)N[C@H](C(=O)O)C(c1ccccc1)c1ccccc1` (H-RR[Dip][Dip]RR[Dip]-OH) yielded an MIC (Staphylococcus aureus [1]) of 12.5 µg/mL (≈ 9.52 µM), an MIC (Staphylococcus aureus [2]) of 12.5 µg/mL (≈ 9.52 µM) and an MIC (Escherichia coli [3]; [24]) of 25 µg/mL (≈ 19 µM). The HC50 at 2 h [4] was 240 µg/mL and the MIC (Pseudomonas aeruginosa [5]; [25]) was 25 µg/mL (≈ 19 µM).
`CC[C@H](C)CCCCC(=O)N[C@@H](CCN)C(=O)N[C@H](C(=O)N[C@@H](CCN)C(=O)N[C@H]1CCNC(=O)[C@H]([C@@H](C)O)NC(=O)[C@H](CCN)NC(=O)[C@H](CCN)NC(=O)[C@H](CC(C)C)NC(=O)[C@@H](Cc2ccccc2)NC(=O)[C@H](CCN)NC1=O)[C@@H](C)O` (X1-[Dab]T[Dab][Dab][Dab][dF]L[Dab][Dab]T; lactam 4-C) gave an MIC (Escherichia coli [6]) of 0.7 µg/mL, an MIC (Acinetobacter baumannii) of 0.7 µg/mL (≈ 0.582 µM) and an MIC (Klebsiella pneumoniae [7]) of 6.2 µg/mL (≈ 5.15 µM). For the same molecule, the MIC (Escherichia coli [8]) was 3.1 µg/mL, the Activity (Escherichia coli [9]) was “Tde” and the MIC (Staphylococcus aureus [2]) was 0.7 µg/mL (≈ 0.582 µM). It also gave an MIC (Escherichia coli [10]) of 0.7 µg/mL, an MIC (Pseudomonas aeruginosa [11]) of 0.7 µg/mL (≈ 0.582 µM) and an MIC (Escherichia coli [12]) of 1.5 µg/mL. It also gave an MIC (Escherichia coli [13]) of 0.7 µg/mL (≈ 0.582 µM), an MIC (Escherichia coli [14]) of 0.7 µg/mL and an MIC (Escherichia coli [3]; ATCC 25922, read-out: MIC) of 0.7 µg/mL (≈ 0.582 µM). The MIC (Escherichia coli [15]) was 0.7 µg/mL, the MIC (Pseudomonas aeruginosa [5]; ATCC 27883, read-out: MIC) was 0.7 µg/mL (≈ 0.582 µM) and the Activity (Escherichia coli [16]) was “Tde”. The Activity (Staphylococcus aureus [17]) was “Tde”, the Activity (Staphylococcus aureus [18]) was “Active” and the Activity (Staphylococcus aureus [19]) was “Tde”. The Activity (Staphylococcus aureus [20]) was “Active”, the MIC (Klebsiella pneumoniae [21]) was 1.5 µg/mL (≈ 1.25 µM) and the MBC (Escherichia coli [22]) was 3.1 µg/mL (≈ 2.58 µM). It also gave an MIC (Pseudomonas aeruginosa [23]) of 0.7 µg/mL (≈ 0.582 µM).
With `N=C(N)NCCC[C@H](NC(=O)[C@@H](NC(=O)[C@@H](NC(=O)[C@H](CCCNC(=N)N)NC(=O)[C@H](CCCNC(=N)N)NC(=O)[C@@H](NC(=O)[C@@H](N)CCCNC(=N)N)C(c1ccccc1)c1ccccc1)C(c1ccccc1)c1ccccc1)C(c1ccccc1)c1ccccc1)C(=O)O` (H-R[Dip]RR[Dip][Dip]R-OH) the MIC (Staphylococcus aureus [1]) was 25 µg/mL (≈ 19 µM), the MIC (Staphylococcus aureus [2]) was 12.5 µg/mL (≈ 9.52 µM) and the MIC (Escherichia coli [3]; [24]) was 25 µg/mL (≈ 19 µM). The HC50 at 2 h [4] was 220 µg/mL and the MIC (Pseudomonas aeruginosa [5]; [25]) was 100 µg/mL (≈ 76.2 µM).
With `N=C(N)NCCC[C@H](NC(=O)[C@H](CCCNC(=N)N)NC(=O)[C@@H](N)CCCNC(=N)N)C(=O)N[C@H](C(=O)N[C@H](C(=O)N[C@H](C(=O)O)C(c1ccccc1)c1ccccc1)C(c1ccccc1)c1ccccc1)C(c1ccccc1)c1ccccc1` (H-RRR[Dip][Dip][Dip]-OH) the MIC (Staphylococcus aureus [1]) was 6.2 µg/mL (≈ 5.36 µM), the MIC (Staphylococcus aureus [2]) was 6.2 µg/mL (≈ 5.36 µM) and the MIC (Escherichia coli [3]; [24]) was 6.2 µg/mL (≈ 5.36 µM). For the same molecule, the HC50 at 2 h [4] was 120 µg/mL and the MIC (Pseudomonas aeruginosa [5]; [25]) was 25 µg/mL (≈ 21.6 µM).
